Each structure is given as a SMILES string. Converted amounts (≈) assume the structure as drawn. Read-outs that look alike come from different tables or passages of the source.

For series [1], the system named is Haemophilus influenzae. Nature of the series: MIC, NCCLS broth microdilution, respiratory pathogens. It is filed as cell-based. The conditions noted are these: H. influenzae. As for the experimental part:
(§1) Minimum inhibitory concentrations (“MICs”) were determined by the NCCLS broth microdilution procedure for susceptibility testing for bacteria that grow aerobically (National Committee for Clinical Laboratory Standards, 1997. Methods for dilution antimicrobial susceptibility tests for bacteria that grow aerobically, 4th ed. Approved standard. NCCLS Document M7-A4. National Committee for Clinical Laboratory Standards, Villanova, Pa.). Stock solutions were prepared on the day of the test and appropriate aliquots were added to cation adjusted Mueller-Hinton broth (CAMHB, DIFCO) or Haemophilus test media. Two-fold serial dilutions were prepared and added to wells in microtiter plates. Final test concentrations ranged from 8 to 0.004 ug/ml. Broth cultures of bacteria inoculated from growth on overnight plates for all test bacteria except Streptococcus pneumoniae and Haemophilus influenzae were incubated at 35° C. and then adjusted to the Kirby Bauer standard and diluted in CAMHB to achieve a final inoculum concentration of approximately 5×10^5 CFU/ml. Inocula for S. pneumoniae and H. influenzae were prepared by directly suspending colonies from an overnight plate, adjusting the turbidity and diluting as above. S. pneumoniae media was supplemented with 3% lysed horse blood. All plates were incubated in ambient air at 35° C. for 20-24 h for S. pneumoniae and Haemophilus influenzae and 16-20 h for all other bacteria.

For series [2], the system named is M. catarrhalis. Described as above. It counts as cell-based. Particulars: Moraxella catarrhalis. How it is done: as §1
The subject of series [3] is S. pyogenes. The series is described as above. Particulars: Streptococcus pyogenes. It is filed as cell-based. How it is done:
as §1

Series [4] deals with Streptococcus pneumoniae. The description is as above. It counts as cell-based. The conditions noted are these: S. pneumoniae. How it is done:
as §1

Series [5] concerns Streptococcus pneumoniae ATCC 6303. Nature of the series: rat lower respiratory tract infection (lung pneumonia) model. The conditions noted are these: for Log CFU/g (avg, n = 8): rat lungs, 12 hours after the last dose. It is filed as in vivo. How it is done:
The in vivo efficacy of compounds (II) and (III) were evaluated in a rat lower respiratory tract infection model. Groups of 8 rats were infected intratracheally with 0.5 mL containing 10^6 CFUs of Streptococcus pneumoniae ATCC 6303 in 5% hog gastric mucin. Compounds dissolved in ethanol were administered by oral gavage daily over 3 days starting 18 hours post-inoculation. Lungs were aseptically removed from survivors 12 hours after the last dose and examined for visible signs of infection, then homogenized in sterile PBS and plated for determination of CFUs by log plating on Columbia agar-nalidixic acid plates.

Series [6] concerns anesthetized rats. Kind of series: Cardiovascular safety, QT interval in anesthetized rats, i.v. bolus. It is filed as in vivo, rat. The conditions noted are these: for QT prolongation (% above vehicle): anesthetized rat, incremental i.v. bolus doses 0.47 to 15 mg/kg. How it is done: (§2) Total doses of drug (0.47, 0.94, 1.88, 3.75, 7.5, and 15 mg/kg) or equivalent volumes of vehicle were administered incrementally as an i.v. bolus to groups of 6 anesthetized rats or guinea pigs at 0, 15, 30, 45, 60, and 75 minutes. Hemodynamic parameters including mean arterial pressure (MAP) and heart rate (HR), and ECG parameters (QT and PR intervals and QRS duration) were recorded. For the rat, injection of vehicle gave a 16% increase in QT interval over baseline. For the guinea pig, injection of vehicle gave a 3% increase in QT interval over baseline.

Series [7] relates to anesthetized guinea pigs. Nature of the series: Cardiovascular safety, QTc interval in anesthetized guinea pigs, i.v. bolus. It is filed as in vivo, guinea pig. Particulars: for QTc prolongation (% above vehicle): anesthetized guinea pig, incremental i.v. bolus doses 0.47 to 15 mg/kg. As for the experimental part:
as §2

Series [8] concerns male beagle dogs. Kind of series: Cardiovascular safety in telemetered dogs, intravenous infusion. It counts as in vivo, dog. The source says:
Four male beagle dogs, obtained from Marshall Farms USA, Inc. (North Rose, N.Y.), were surgically instrumented with telemetry transducers (Data Sciences International, type RL11M2-D70-PCT) to assess arterial blood pressure (ABP) and lead II electrocardiogram (ECG) parameters.
The dosing route was an intravenous infusion jugular vein access). The infusion was accomplished using a CADD Prizm® ambulatory infusion pump attached to a jacket worn by the dog. The dose duration for the intravenous infusion was 30 min for all doses administered, except the last dose (30 mg/kg) where the infusion period was extended to 45 min to accommodate the larger dose volume required for this dose. The vehicle dose and diluent for the test article was 0.05-M sodium citrate in sterile water for injection.
There was one treatment group of four non-naïve dogs and the study was comprised of both pharmacokinetic and telemetry phases, as summarized in the dose administration table for compound (III) (Table 16) below. At least one week was given between dosings to allow clearance of the drug.
For the telemetry phase of the study, collection of hemodynamic and lead II ECG data commenced approximately 30 min prior to dosing and ended approximately 6 h post-dose. Systolic blood pressure (SBP), diastolic blood pressure (DBP), HR, and lead II ECG variables (PR interval, QRS duration, RR interval, and QT interval) were acquired continuously from each animal during each dose day recording session. The QT interval was corrected for variations in HR using the Fridericia's QTc interval (QTcF).
Data acquired following treatment with vehicle or compound (III) were extracted at −10, −5, 0, 10, 20, 30, 35, 45, 60, 90, 150, 270, and 390 min relative to the start dose time. For all blood pressure and ECG parameters, data following treatment with compound (III) were compared to the time-matched vehicle dose data. Statistical comparisons were made using a one-way ANOVA for repeated measures, followed by the Dunnett's post-hoc test when statistical significance was detected with the ANOVA. Changes were considered statistically significant when p<0.05.
A complete visual scan of the ECG waveforms from the vehicle, 11 mg/kg dose, and 15 mg/kg dose of compound (III) was conducted. All waveforms were examined for gross changes in waveform morphology and arrhythmogenesis.

Series [9] concerns human hepG2 hepatocytes. Nature of the series: In vitro hepatotoxicity, resazurin and Nile Red staining. It counts as cell-based. The conditions noted are these: 100 μM. How it is done:
In one experiment, hepatotoxicity was estimated by overnight incubation of compounds at 3, 10, 30, 100, or 300 μM with cultured rat or human hepG2 hepatocytes, followed by staining of the cells with resazurin to measure viability or with Nile Red to measure steatosis. The minimal drug concentration at which changes in dye binding were observed was noted as the minimal effective concentration. The compound of formula (VIII) wherein Z=3-quinolyl affected […] and steatosis in human HepG2 hepatocytes at 30 μM.

Series [10] is described as follows: Pharmacokinetics in the mouse, plasma and lung tissue. It counts as in vivo. Particulars: oral gavage 10 mg/kg; for Lung AUC / Lung Cmax: mouse lung tissue. As for the experimental part:
The pharmacokinetics of compounds of formula (VIII) and compounds of formula (II) and (III) were measured in the mouse. Compounds were administered either intravenously (i.v.) at 1 mg/kg, or per oral gavage (p.o.) at 10 mg/kg. Plasma samples were taken and analyzed by LC/MS-MS. For lung tissue pharmacokinetics, lungs were removed and homogenized, followed by analyzis by LC/MS-MS.

The test system of series [11] is dog. Kind of series: Safety of intravenous dosing in dog models. Particulars: intravenous 9 mg/kg.
Setting [12] is: genotype sensitive, read-out: MIC50.
Setting [13] is: genotype sensitive, read-out: MIC90.

With `CC1CC(N(C)C)C(O)C(O[C@@H]2[C@@H](C)C(=O)[C@@H](C)C(=O)O[C@H](CCF)[C@@]3(C)OC(=O)N[C@@H]3[C@@H](C)C(=O)[C@H](C)C[C@@]2(C)OC/C=C/c2ccc3cccnc3c2)O1` (stereo partly shown) [Compound (II), 6-O-(1-(7-quinolyl)-3-propenyl)-11-amino-11-deoxy-3-(descladinosyl)-3-oxo-15-fluoroerythromycin A-11,12-cyclic carbamate], the MIC50 in series [1] (resistant) was over 8 mg/L; in series [1] (sensitive), 2 mg/L (≈ 2.55 µM); in [2], 0.12 mg/L (≈ 0.153 µM); in series [3] (genotype ermB), 0.12 mg/L (≈ 0.153 µM); in [3] (genotype mef, read-out: MIC50), 0.12 mg/L (≈ 0.153 µM); in [3] (setting [12]) it was 0.03 mg/L (≈ 0.0383 µM). The MIC50 in series [4] (20 h, genotype ermB + mef) was found to be 1 mg/L; in series [4] (genotype ermB), 0.12 mg/L (≈ 0.153 µM); in [4] (genotype mef, read-out: MIC50), 0.25 mg/L (≈ 0.319 µM); in [4] (setting [12]) it was 0.03 mg/L (≈ 0.0383 µM). Also, the MIC90 in series [1] (resistant) is over 8 mg/L; in series [1] (sensitive), 4 mg/L (≈ 5.1 µM); in series [2], 0.12 mg/L (≈ 0.153 µM); in [3] (genotype ermB), 1 mg/L (≈ 1.28 µM); in series [3] (genotype mef, read-out: MIC90), 0.25 mg/L (≈ 0.319 µM); in series [3] (setting [13]) it was 0.03 mg/L (≈ 0.0383 µM). Also, the MIC90 in [4] (genotype ermB) turned out to be 0.12 mg/L (≈ 0.153 µM); in [4] (genotype ermB + mef) it was 2 mg/L; in series [4] (genotype mef, read-out: MIC90), 0.25 mg/L (≈ 0.319 µM); in series [4] (setting [13]), 0.03 mg/L (≈ 0.0383 µM). Also, the “Log CFU/g (avg, n = 8)” value amounted to 4.8 Log CFU/g in series [5] (0.5 mg/kg oral gavage daily over 3 days) and 4.3 Log CFU/g in series [5] (2.5 mg/kg oral gavage daily over 3 days). The “% survivors” value is listed as 78% in [5] (rat, 0.5 mg/kg oral gavage daily over 3 days) and 88% in series [5] (rat, 2.5 mg/kg oral gavage daily over 3 days). The “reducing the bacterial load in the rat lungs and increasing survival relative to control animals” value in [5] (rat, oral gavage daily over 3 days) was “efficacious”. Also, the “QT prolongation (% above vehicle)” value in series [6] is on record as −4 % above vehicle. In addition, the “effect on the QT interval in the rat” value in series [6] (rat) is “did not prolong the QT interval”. The “QTc prolongation (% above vehicle)” value in series [7] turned out to be 1 % above vehicle. Also, in series [7] (guinea pig, cumulative doses up to 30 mg/kg, relative to vehicle controls), the “effect on the QTc interval in the anesthetized guinea pig” value is reported as “no statistically significant effects”. The “heart rate-corrected QT interval (QTc), FIG. 5” value in [8] (male beagle dogs, intravenous infusion 15 mg/kg over 30 minutes) is given as “No significant increase in QTc”. For the same compound, the “effects on cardiac parameters, including QT interval” value in series [8] (telemetered dogs, intravenous infusion up to 15 mg/kg) was “no effects”. Also, in series [9], the “effects on metabolic stability and steatosis” value is on record as “No effects”. In series [10], the “Lung AUC” value is 1.42 ug/mL-h. Further, the “Lung Cmax” value in series [10] was determined as 0.26 µg/mL. The compound also displayed an area under the curve (AUC) in [10] (mouse plasma) of 0.89 µg·h/mL. Further, the Cmax in series [10] (mouse plasma) was 0.26 µg/mL.
For `CC1CC(N(C)C)C(O)C(O[C@@H]2[C@@H](C)C(=O)[C@](C)(F)C(=O)O[C@H](CCF)[C@@]3(C)OC(=O)N[C@@H]3[C@@H](C)C(=O)[C@H](C)C[C@@]2(C)OC/C=C/c2ccc3nccnc3c2)O1` (stereo partly shown) [H], the “QT prolongation (% above vehicle)” value in series [6] worked out at 15 % above vehicle. Moreover, the “QTc prolongation (% above vehicle)” value in [7] turned out to be 4 % above vehicle. In series [10], the “Lung AUC” value came to 11.0 ug/mL-h and the “Lung Cmax” value was determined as 3.0 µg/mL. In [10] (mouse plasma), the “Plasma AUC” value worked out at 2.1 ug/mL-h and the “Plasma Cmax” value was found to be 0.67 µg/mL. Also, in series [11], the “toxicity, severe clinical effects upon intravenous dosing” value was “extremely toxic”.

Source of the values: patent US7595300B2, “7-quinolyl ketolide antibacterial agents” (priority 2005, dated 2009).
